Data published in patent US20260284011A1, “COMPOUNDS FOR RESTORING SUSCEPTIBILITY TO BETA-LACTAM ANTIBIOTICS” (UNIVERSITY OF NOTRE DAME DU LAC, priority 2023, published 2026).

What was measured:
additional MRSA strains = test: Checkerboard assay; format: cell-based, Staphylococcus aureus
Protocol: (§1) Synergy with β-Lactams and Time-Kill Assays. […] In this assay, the antibiotics are compared individually and in combination. The fractional inhibitory concentration (FIC) index is calculated. Synergy is defined as an FIC value ≤0.5, indifference as FIC >0.5 to ≤4, and antagonism as FIC >4.
(§2) Checkerboard assay. […] The final inoculum in each well was 5×10^5 CFU·mL^−1, and the result was read after 24-h incubation at 37° C. The fractional inhibitory concentration (FIC) index was calculated for each combination. An FIC index of ≤0.5 is considered synergistic. The experiment was done in triplicates.

strain NRS21 = test: Checkerboard assay; format: cell-based, Staphylococcus aureus; details: 24-h incubation
Protocol: as §1, §2

BlaR = BlaR (Staphylococcus aureus, UniProt P18357); test: Live-cell fluorescent assay for BlaR inhibition (Venus reporter); format: cell-based, S. aureus NRS144pCN52RI-Venus; details: compound at 100 mg/L^−1; CBAP 10 mg·L^−1; fluorescence after 2 h
Text: Live-Cell Fluorescent Assay in Discovery and Mechanism of Action. We conceived of fluorescent constructs in the bla operon, for the purpose of screening (FIG. 2a). We removed the gene for the β-lactamase (blaZ) and put in its place individually the genes for the Green Fluorescent Protein (GFP), Venus (a yellow-fluorescent protein) or mCherry (a red-fluorescent protein) in the template plasmid pCN52. The three plasmids were named pCN52RI, pCN52RI-Venus and pCN52RI-mCherry, respectively. The genes for the fluorescent proteins were transcribed under the promoter of the blaZ gene and were regulated by the proteins BlaR and BlaI, as is the case for the wild-type bla operon.
We transformed separately S. aureus NRS144—a laboratory strain that accepts a foreign gene and harbors neither the bla nor the mec operons—with each of these plasmids. […] When induced, the fluorescent protein is produced and is detected (akin to expression of the resistance genes blaZ or mecA in typical MSSA and MRSA). […] The transformed strains were grown in tryptic soy broth medium for overnight culture and strain maintenance and incubated in cation-adjusted Mueller-Hinton broth medium for inhibitor screening in a 96-well microplate format. The culture without CBAP addition was the negative control. In order to select a desirable reporter construct, we compared the intensity of the fluorescence produced from each construct at the wavelengths given in FIG. 2a using the Cytation-5 multi-mode microplate reader. Among the three constructs, pCN52RI-Venus produced the best fluorescence intensity and pCN52RI-mCherry was the second best (FIG. 4).
(§3) The collection of the 100 compounds from the in-silico search was screened against S. aureus NRS144pCN52RI-Venus. The screening strategy was as follows. Bacteria grown to OD600 of 0.25 were exposed concurrently to CBAP (10 mg·L^−1) and the test compound (100 mg·L^−1). Fluorescence was recorded after two hours of incubation. OD600 values were also recorded to identify compounds with inherent antibacterial activity. Compound 1 (Chart 1) emerged—82% diminished fluorescence as an indication of the extent of BlaR inhibition—as a suitable template for structure elaboration. This effort led to the synthesis of several dozen benzimidazole and imidazole compounds. The progression of the iterative design is depicted in Chart 1 for four compounds, culminating in 4. […] The X-ray structures for the complexes of compounds 2 (non-covalent) and 4 (covalent) with the BlaR sensor domain are shown respectively in FIG. 2b (2.0 Å resolution) and FIG. 2c (1.97 Å resolution). Compound 4 makes a covalent bond with the catalytic Ser389 and creates a network of hydrogen bonds with the BlaR active site (FIG. 2c).
(§4) Fluorescent assay for screening of BlaR potential inhibitors. A 3-mL portion of lysogeny broth (LB) medium was inoculated with NRS144pCN52RI Venus from frozen stocks and grown overnight at 37° C. The overnight culture was then diluted 1:150 fold with fresh LB containing […] of erythromycin and incubated at 37° C. to an OD600 of 0.3, at which point fluorescence was induced by the addition of CBAP to a final concentration of 10 μg·mL^−1. The culture was aliquoted (99 L) into 96-well plate and 1 L of inhibitor solution (1 mg·mL^−1 in DMSO) was added to each well. Negative control (DMSO without CBAP) and positive control (CBAP without inhibitor) were included. The plate was incubated at 30° C. for 2 h with intermittent shaking. Fluorescence and OD600 measurements were taken by a Cytation-5 multimode microplate reader. Percent inhibition of BlaR and bacterial growth were calculated using absorbance unit (AU) and OD600 values of each sample entered into this formula: […]

[1] = test system: S. aureus NRS144pCN52RI-Venus; test: Bacterial growth inhibition (OD600) in the fluorescent screening assay; format: cell-based, Staphylococcus aureus; details: compound at 100 mg/L^−1; OD600 after 2 h
Protocol: as §3, §4

[2] = test system: active-site serine penicillin-binding proteins; test: Inhibition of penicillin-binding proteins
XTT cytotoxicity assay = format: cell-based; details: human, hepg2 cells; HepG2; at 64 mg·L^−1; read-out: Cell viability
Protocol: (§5) We evaluated additionally the in vitro cytotoxicity of compound 4 using the XTT assay with HepG2 (liver) cells. Cell viability was 100% at 64 mg·L^−1.
(§6) XTT assay. Compound 4 was evaluated in triplicate in the XTT assay (XTT cell proliferation assay, Canvax, Spain) with HepG2 cells, as described previously (Eur. J. Med. Chem. 253, 115329 (2023)). GraphPad Prism 5 (San Diego, CA) was used to calculate IC50 values.

HepG2 (liver) cells = test: XTT cytotoxicity assay; format: cell-based; details: HepG2 cells
Protocol: as §5, §6

HI049 = test: Checkerboard assay; format: cell-based, Staphylococcus aureus
Protocol: as §1, §2

HFH29568 = test: Checkerboard assay; format: cell-based, Staphylococcus aureus
Protocol: as §1, §2

Chain of BlaR (P18357 whole entry): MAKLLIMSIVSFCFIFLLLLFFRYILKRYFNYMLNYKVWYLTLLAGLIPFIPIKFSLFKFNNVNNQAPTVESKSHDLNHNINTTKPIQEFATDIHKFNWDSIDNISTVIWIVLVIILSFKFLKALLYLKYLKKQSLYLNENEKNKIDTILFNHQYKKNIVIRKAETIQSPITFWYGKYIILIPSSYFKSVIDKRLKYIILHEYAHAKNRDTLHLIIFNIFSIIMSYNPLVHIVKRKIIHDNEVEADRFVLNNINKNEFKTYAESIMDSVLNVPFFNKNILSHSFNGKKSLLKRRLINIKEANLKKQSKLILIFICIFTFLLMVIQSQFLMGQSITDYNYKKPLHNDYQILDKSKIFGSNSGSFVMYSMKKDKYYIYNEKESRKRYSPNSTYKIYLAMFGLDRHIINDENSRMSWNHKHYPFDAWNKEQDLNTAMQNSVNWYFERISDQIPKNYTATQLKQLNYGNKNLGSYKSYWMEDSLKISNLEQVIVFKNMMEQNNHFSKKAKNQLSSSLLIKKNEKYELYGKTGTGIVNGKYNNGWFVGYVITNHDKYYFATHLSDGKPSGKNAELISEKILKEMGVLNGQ

| Compound | FIC, 4 with OXA, MEM, FOX, or CPT (additional MRSA strains) | FIC index, 4 with FOX (strain NRS21) | FIC index, 4 with OXA (strain NRS21) | % Inhibition of BlaR (BlaR) [%] | % Inhibition of bacterial growth [1] [%] | inhibitory properties against penicillin-binding proteins [2] | viability (XTT cytotoxicity assay) [%] | in vitro cytotoxicity (HepG2 (liver) cells) | FIC index, 4 with MEM (HI049) | FIC index, 4 with MEM (HFH29568) |
| --- | --- | --- | --- | --- | --- | --- | --- | --- | --- | --- |
| N#Cc1ccc2nc(SCB(O)O)n(Cc3ccc(C(F)(F)F)cc3C(F)(F)F)c2c1 [Compound 4, (((1-(2,4-bis(trifluoro-methyl)benzyl)-6-cyano-1H-benzo[d]imidazol-2-yl)thio)methyl)boronic acid] | < 0.25 | 0.25 | 0.19 | 98 | 25 | modest inhibitory properties | 100 | not toxic to HepG2 cells | – | – |
| C[C@@H](O)[C@H]1C(=O)N2C(C(=O)O)=C(S[C@@H]3CN[C@H](C(=O)N(C)C)C3)[C@H](C)[C@H]12 [MEM, meropenem] | – | – | – | – | – | – | – | – | 0.19 | 0.09 |
